According to patent US9988430B2, “Stable GLP-1 based GLP-1/glucagon receptor co-agonists” (Novo Nordisk A/S, priority 2014, dated 2018):
*1 amine or outer side, *2 acyl side, *3 side chain or, on linkers, in order; H or OH if unused. Where a SMILES comes first, the peptide text is derived from it. Bridges are numbered along the chain shown (N, C = ends). Roman numbers before positions name the chains, in order. Side-chain parts run from the residue outwards. [ ]: non-standard residue; d: D form. The star is where a group is joined. C18 diacid = O=C(O)CCCCCCCCCCCCCCCCC(=O)*; γGlu = O=C(O)[C@H](CCC(=O)[*:2])N[*:1]; Desaminohistidyl = O=C(CCc1c[nH]cn1)*; AEEA = NCCOCCOCC(=O)O; Aib = CC(C)(N)C(=O)O

Columns and labels:
human GLP-1 receptor [1] = biological target: T1, human GLP-1 receptor (Homo sapiens, UniProt P43220); test: Assay (II)(a): GLP-1 receptor binding, [125I]GLP-1 displacement, SPA on BHK membranes; settings: displacement of [125I]GLP-1, membranes with human GLP-1 receptor; read-out: IC50 GLP-1R
T1 construct: expressed in transfected cells; host or cells: membranes of BHK cells, parent line BHKTS13, clone FCW467-12A
T1 sequence (P43220 24-463): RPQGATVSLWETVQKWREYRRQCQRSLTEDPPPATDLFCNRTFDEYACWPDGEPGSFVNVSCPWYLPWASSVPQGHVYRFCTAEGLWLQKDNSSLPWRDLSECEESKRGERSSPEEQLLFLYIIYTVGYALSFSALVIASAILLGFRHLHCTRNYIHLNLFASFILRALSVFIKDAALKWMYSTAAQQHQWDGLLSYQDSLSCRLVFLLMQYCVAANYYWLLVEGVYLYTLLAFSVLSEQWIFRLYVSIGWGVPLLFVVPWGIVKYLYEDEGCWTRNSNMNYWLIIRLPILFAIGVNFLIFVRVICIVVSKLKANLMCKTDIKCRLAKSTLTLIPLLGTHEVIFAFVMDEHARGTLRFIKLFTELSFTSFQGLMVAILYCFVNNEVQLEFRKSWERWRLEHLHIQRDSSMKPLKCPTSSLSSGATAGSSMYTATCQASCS
Description: Assay (II): GLP-1 and Glucagon Receptor Binding The purpose of this assay is to test the in vitro receptor binding activity of the GLP-1 derivatives of the invention. (a) GLP-1 Receptor Binding The GLP-1 receptor (GLP-1R) binding is a measure of the affinity of a derivative for the human GLP-1 receptor. The GLP-1 receptor binding of each derivatives were determined with competitive binding, displacing [^125I]GLP-1 bound to GLP-1 receptors expressed in cell membranes associated with wheat germ agglutinin (WGA) scintillation proximity assay (SPA) beads. Each derivative was added in a series of concentrations to isolated membranes comprising the human GLP-1 receptor and displacement of the labelled radioligand was monitored. The receptor binding was reported as the concentration at which half of the labelled ligand is displaced from the receptor, the IC^50 value. The following chemicals were used in the assay: MEM w/o phenol red (Gibco 11880-028), Pen/strep (Invitrogen 15140-122), G418 (Invitrogen 10131-027), 1 M Hepes (Gibco 15630), EDTA (Invitrogen 15575-038), PBS (Invitrogen 14190-094), fetal calf serum (Invitrogen 16140-071), EGTA, MgCl2 (Merck 1.05832.1000), Tween 20 (Amresco 0850C335), SPA particles (wheat germ agglutinin (WGA) SPA beads, Perkin Elmer RPNQ0001), [125I]-GLP-1]-(7-36)NH2 (produced in-house), OptiPlate™-96 (Perkin Elmer). Buffer 1 consisted of 20 mM Na-HEPES plus 10 mM EDTA and pH was adjusted to 7.4. Buffer 2 consisted of 20 mM Na-HEPES plus 0.1 mM EDTA and pH was adjusted to 7.4. Assay buffer consisted of 50 mM HEPES supplemented with 5 mM EGTA, 5 mM MgCl2, 0.005% Tween 20 and pH was adjusted to 7.4. A 0.02% albumin stock consisted of HSA dissolved at 0.02% (w/v) in assay buffer. The cells used in this assay (clone FCW467-12A) were BHK cells with BHKTS13 as a parent cell line. The cells express the human GLP-1 receptor. The cells were grown at 5% CO2 in DMEM, 10% fetal calf serum, 1% Pen/Strep (Penicillin/Streptomycin) and 1.0 mg/ml of the selection marker G418. To make a membrane preparation the cells were grown to approximately 80% confluence. The cells were washed twice in phosphate-buffered saline and harvested. The cells were pelleted using a brief centrifugation and the cell pellet was kept on ice. The cell pellet was homogenised with ULTRA-THURRAX dispersing instrument for 20-30 seconds in a suitable amount of buffer 1 (e.g., 10 ml). The homogenate was centrifuged for 15 minutes. The pellet was re-suspended (homogenised) in 10 ml buffer 2 and centrifuged. This step was repeated once more. The resulting pellet was re-suspended in buffer 2 and the protein concentration was determined. The membranes were aliquoted and stored at minus 80° C. • 1. For the receptor binding assay 50 μl of the assay buffer was added to each well of an assay plate. • 2. Test compounds were serially diluted to give the following concentrations: 8×10EE-7 M, 8×10EE-8 M, 8×10EE-9 M, 8×10EE-10 M, 8×10EE-11 M, 8×10EE-12 M and 8×10EE-13 M. Twenty-five μl were added to appropriate wells in the assay plate. • 3. Cell membrane aliquots were thawed and diluted to their working concentration. Fifty μl were added to each well in the assay plate. • 4. WGA SPA beads were suspended in assay buffer at 20 mg/ml. The suspension was diluted to 10 mg/ml in assay buffer just prior to addition to the assay plate. Fifty μl were added to each well in the assay plate. • 5. The incubation was started by adding 25 μl of 480 pM solution of [125I]-GLP-1]-(7-36)NH2 to each well of the assay plate. A 25 μl aliquot was reserved for measuring total counts/well. • 6. The assay plate was incubated for 2 h at 30° C. • 7. The assay plate was centrifuged for 10 min. • 8. The assay plate was read in a Perkin Elmer TopCount NXT instrument. Calculations The data from the TopCount instrument were transferred to GraphPad Prism software. The software averaged the values for the replicates and performed a non-linear regression. IC50 values were calculated by the software and reported in nM. […]

human GLP-1 receptor [2] = biological target: T1, human GLP-1 receptor; test: Assay (I)(a): GLP-1 receptor potency, CRE luciferase reporter gene assay in BHK cells; format: cell-based; settings: BHK cells expressing human GLP-1 receptor, read-out: EC50 GLP-1R
Description: Assay (I): GLP-1 and Glucagon Receptor Potency The purpose of this example was to test the activity or potency, of the GLP-1 derivatives of the invention, in vitro. The in vitro potency is the measure of human GLP-1 receptor (GLP-1R) or glucagon receptor (glucagonR) activation, respectively, in a whole cell assay. In vitro potency was determined by measuring the cellular response of human GLP-1 or glucagon receptor activation, respectively, in a reporter gene assay. The assay was performed in a BHK cell line that stably expresses either the human GLP-1 receptor or the human glucagon receptor and comprises the DNA for the cAMP response element (CRE) coupled to a promoter and the gene for firefly luciferase (CRE luciferase). […] When assay incubation was completed, the luciferase substrate (luciferin) was added and the enzyme converted luciferin to oxyluciferin and produces bioluminescence. The luminescence was measured as the readout for the assay. (a) GLP-1 Receptor Activation The cells used in this assay (clone FCW467-12A/KZ10-1) were BHK cells with BHKTS13 as a parent cell line. The cells were derived from a clone (FCW467-12A) that expresses the human GLP-1 receptor and were established by further transfection with CRE luciferase to obtain the current clone. The cells were cultured at 5% CO2 in DMEM medium with 10% FBS, 1×GlutaMAX, 1 mg/ml G418, 240 nM MTX (methotrexate) and 1% pen/strep (penicillin/streptomycin). They were aliquoted and stored in liquid nitrogen. Before each assay, an aliquot was taken up and washed three times in PBS before being suspended at the desired concentration in assay medium. For 96-well plates the suspension was made to give a final concentration of 5×10EE3 cells/well. The following chemicals were used in the assay: Pluronic F-68 (10%) (Gibco 2404), Ovalbumin (Sigma A5503), DMEM w/o phenol red (Gibco 11880-028), 1 M Hepes (Gibco 15630), Glutamax 100× (Gibco 35050) and steadylite plus (PerkinElmer 6016757). Assay Medium consisted of DMEM w/o phenol red, 10 mM Hepes, 1×GlutaMAX, 2% Ovalbumin and 0.2% Pluronic F-68. Cell stocks were thawed in a 37° C. water bath. Cells were washed three times in PBS. The cells were counted and adjusted to 5×10EE3 cells/50 μl (1×10EE5 cells/ml) in Assay Medium. A 50 μl aliquot of cells was transferred to each well in the assay plate. Stocks of the test compounds and reference compounds were diluted to a concentration of […] in Assay Medium. Compounds were diluted 10-fold to give the following concentrations: 2×10EE-6 M, 2×10EE-7 M, 2×10EE-8 M; 2×10EE-9 M, 2×10EE-10 M, 2×10EE-11 M, 2×10EE-12 M and 2×10EE-13 M. For each compound a blank assay medium control was also included. A 50 μl aliquot of compound or blank was transferred from the dilution plate to the assay plate. Compounds were tested at the following final concentrations: 1×10EE-6 M, 1×10EE-7 M, 1×10EE-8 M; 1×10EE-9 M, 1×10EE-10 M, 1×10EE-11 M and 1×10EE-12 M and 1×10EE-13 M. The assay plate was incubated for 3 h in a 5% CO2 incubator at 37° C. The assay plate was removed from the incubator and allowed to stand at room temperature for 15 min. A 100 μl aliquot of steadylite plus reagent was added to each well of the assay plate (reagent is light sensitive). Each assay plate was covered with aluminum foil to protect it from light and shaken for 30 min at room temperature. Each assay plate was read in a Perkin Elmer TopCount NXT instrument. The data from the TopCount instrument was transferred to GraphPad Prism software. The software performed a non-linear regression (log(agonist) vs response-Variable slope (four parameter)). EC50 values were calculated by the software and reported in pM.

| IC50 (human GLP-1 receptor [1]) [nM] | EC50 (human GLP-1 receptor [2]) [pM] | Compound |
| --- | --- | --- |
| 3.2 | 8 | CC[C@H](C)[C@H](NC(=O)[C@H](Cc1ccccc1)NC(=O)[C@H](CCC(=O)O)NC(=O)[C@H](CCCNC(=N)N)NC(=O)[C@H](C)NC(=O)[C@H](C)NC(=O)[C@H](CCC(N)=O)NC(=O)[C@H](CCC(=O)O)NC(=O)[C@H](CCC(=O)O)NC(=O)[C@H](CC(C)C)NC(=O)[C@H](Cc1ccc(O)cc1)NC(=O)[C@H](CCCNC(=N)N)NC(=O)[C@H](CO)NC(=O)[C@@H](NC(=O)[C@H](CC(=O)O)NC(=O)[C@H](CO)NC(=O)[C@@H](NC(=O)[C@H](Cc1ccccc1)NC(=O)[C@@H](NC(=O)CNC(=O)[C@H](Cc1c[nH]cn1)NC(=O)CNC(=O)CCc1c[nH]cn1)[C@@H](C)O)[C@@H](C)O)C(C)C)C(=O)N[C@@H](C)C(=O)N[C@@H](Cc1c[nH]c2ccccc12)C(=O)N[C@@H](CC(C)C)C(=O)N[C@@H](CC(C)C)C(=O)N[C@@H](CCCCNC(=O)CNC(=O)[C@H](CO)NC(=O)[C@H](CCC(=O)O)NC(=O)CNC(=O)[C@H](CO)NC(=O)CC[C@H](NC(=O)CC[C@H](NC(=O)CCCCCCCCCCCCCCCCC(=O)O)C(=O)O)C(=O)O)C(=O)N[C@H](C(N)=O)[C@@H](C)O [Example 37, N^ε34-[2-[[(2S)-2-[[(2S)-4-carboxy-2-[[2-[[(2S)-2-[[(4S)-4-carboxy-4-[[(4S)-4-carboxy-4-(17-carboxyheptadecanoylamino)butanoyl]amino]butanoyl]amino]-3-hydroxypropanoyl]amino]acetyl]amino]butanoyl]amino]-3-hydroxypropanoyl]amino]acetyl]-[Imp7,Gly8,His9,Arg18,Glu22,Arg26,Leu33,Thr35]-GLP-1-(7-35)-peptide amide] (I: Desaminohistidyl-GHGTFTSDVSRYLEEQAAREFIAWLLKT-NH2 / II: {C18 diacid-γGlu-γGlu}-SGESG; amide I:27-II:C) |
| – | 6 | CC[C@H](C)[C@H](NC(=O)[C@H](Cc1ccccc1)NC(=O)[C@H](CCC(=O)O)NC(=O)[C@H](CCCNC(=N)N)NC(=O)[C@H](C)NC(=O)[C@H](C)NC(=O)[C@H](CCCNC(=N)N)NC(=O)CNC(=O)[C@H](CCC(=O)O)NC(=O)[C@H](CC(C)C)NC(=O)[C@H](Cc1ccc(O)cc1)NC(=O)[C@H](CCCNC(=N)N)NC(=O)[C@H](CO)NC(=O)[C@@H](NC(=O)[C@H](CC(=O)O)NC(=O)[C@H](CO)NC(=O)[C@@H](NC(=O)[C@H](Cc1ccccc1)NC(=O)[C@@H](NC(=O)CNC(=O)[C@H](Cc1c[nH]cn1)NC(=O)C(C)(C)NC(=O)CCc1c[nH]cn1)[C@@H](C)O)[C@@H](C)O)C(C)C)C(=O)N[C@@H](C)C(=O)N[C@@H](Cc1c[nH]c2ccccc12)C(=O)N[C@@H](CC(C)C)C(=O)N[C@@H](CC(C)C)C(=O)N[C@@H](CCCCNC(=O)CC[C@H](NC(=O)CC[C@H](NC(=O)COCCOCCNC(=O)CC[C@H](NC(=O)CC[C@H](NC(=O)CCCCCCCCCCCCCCCCC(=O)O)C(=O)O)C(=O)O)C(=O)O)C(=O)O)C(=O)NCC(=O)N[C@@H](CO)C(=O)NCC(=O)O [Example 36, N^ε34-[(4S)-4-carboxy-4-[[(4S)-4-carboxy-4-[[2-[2-[2-[[(4S)-4-carboxy-4-[[(4S)-4-carboxy-4-(17-carboxyheptadecanoylamino)butanoyl]amino]butanoyl]amino]ethoxy]ethoxy]acetyl]amino]butanoyl]amino]butanoyl]-[Imp7,Aib8,His9,Arg18,Arg23,Arg26,Leu33,Ser36]-GLP-1-(7-37)-peptide] (Desaminohistidyl-[Aib]HGTFTSDVSRYLEGRAAREFIAWLLK([γGlu-γGlu-AEEA-γGlu-γGlu-C18 diacid])GSG-OH) |
